Test system: WT MEF EVs
Assay: Quantitative LC-MS/MS proteomics of EVs from ISRIB-treated WT MEF cultures
Assay type: cell-based, mouse
Set-up: key to ISRIB and DYT Parallel Direction / ISRIB and DYT Parallel Direction, Ctdsp1 / ISRIB and DYT Parallel Direction, Pcdh19 / ISRIB and DYT Parallel Direction, Tspan7 / ISRIB and DYT Parallel Direction, Myo1e / ISRIB and DYT Parallel Direction, Plpp3 / ISRIB and DYT Parallel Direction, Sh3bp4 / ISRIB and DYT Parallel Direction, Dnajc7 / ISRIB and DYT Parallel Direction, Drg1 / ISRIB and DYT Parallel Direction, Maea: YES = protein abundance effect similar to DYT/WT

O=C(COc1ccc(Cl)cc1)NC1CCC(NC(=O)COc2ccc(Cl)cc2)CC1 (stereo not shown) [ISRIB, reference compound]
genotype-disrupted proteins (n=363) reproduced by ISRIB (50 nM, 24 h, p<0.05): 7% | EV proteins disrupted by ISRIB treatment of WT cells (50 nM, 24 h, p<0.05, of 1974 proteins): 5% | WT + ISRIB/WT Cohen's d, Brd4 (EV protein Brd4 (Q9ESU6)): 0.37 | WT + ISRIB/WT Cohen's d, Cdk11b (EV protein Cdk11b (P24788)): 4.28 | WT + ISRIB/WT Cohen's d, Cfdp1 (EV protein Cfdp1 (O88271)): 8.58 | WT + ISRIB/WT Cohen's d, Cstf1 (EV protein Cstf1 (Q99LC2)): 1.34 | WT + ISRIB/WT Cohen's d, Ctdsp1 (EV protein Ctdsp1 (P58466)): −10.61 | ISRIB and DYT Parallel Direction, Ctdsp1 (EV protein Ctdsp1 (P58466), WT + ISRIB vs WT): YES | WT + ISRIB/WT Cohen's d, Dcaf8 (EV protein Dcaf8 (Q8N7N5)): 0.84 | WT + ISRIB/WT Cohen's d, Dnajc7 (EV protein Dnajc7 (Q9QYI3)): −2.37 | ISRIB and DYT Parallel Direction, Dnajc7 (EV protein Dnajc7 (Q9QYI3), WT + ISRIB vs WT): YES | WT + ISRIB/WT Cohen's d, Drg1 (EV protein Drg1 (P32233)): −1.58 | ISRIB and DYT Parallel Direction, Drg1 (EV protein Drg1 (P32233), WT + ISRIB vs WT): YES | WT + ISRIB/WT Cohen's d, Edil3 (EV protein Edil3 (O35474)): 3.24 | WT + ISRIB/WT Cohen's d, Grwd1 (EV protein Grwd1 (Q810D6)): 4.92 | WT + ISRIB/WT Cohen's d, Heatr3 (EV protein Heatr3 (Q8BQM4)): 1.40 | WT + ISRIB/WT Cohen's d, Hmga2 (EV protein Hmga2 (P52927)): 0.21 | WT + ISRIB/WT Cohen's d, Kntc1 (EV protein Kntc1 (Q8C3Y4)): 0.31 | WT + ISRIB/WT Cohen's d, Lpar6 (EV protein Lpar6 (Q8BMC0)): −1.25 | WT + ISRIB/WT Cohen's d, Lsm4 (EV protein Lsm4 (Q9QXA5)): 0.61 | WT + ISRIB/WT Cohen's d, Maea (EV protein Maea (Q4VC33)): −2.82 | ISRIB and DYT Parallel Direction, Maea (EV protein Maea (Q4VC33), WT + ISRIB vs WT): YES | WT + ISRIB/WT Cohen's d, Myo1e (EV protein Myo1e (E9Q634)): −1.56 | ISRIB and DYT Parallel Direction, Myo1e (EV protein Myo1e (E9Q634), WT + ISRIB vs WT): YES | WT + ISRIB/WT Cohen's d, Naa50 (EV protein Naa50 (Q6PGB6)): 1.03 | WT + ISRIB/WT Cohen's d, Ndrg1 (EV protein Ndrg1 (Q62433)): 1.14 | WT + ISRIB/WT Cohen's d, P3h4 (EV protein P3h4 (Q8K2B0)): 1.07 | WT + ISRIB/WT Cohen's d, Pacsin3 (EV protein Pacsin3 (Q99JB8)): −2.60 | WT + ISRIB/WT Cohen's d, Pcdh19 (EV protein Pcdh19 (Q80TF3)): −2.26 | ISRIB and DYT Parallel Direction, Pcdh19 (EV protein Pcdh19 (Q80TF3), WT + ISRIB vs WT): YES | WT + ISRIB/WT Cohen's d, Plpp3 (EV protein Plpp3 (Q99JY8)): 4.49 | ISRIB and DYT Parallel Direction, Plpp3 (EV protein Plpp3 (Q99JY8), WT + ISRIB vs WT): YES | WT + ISRIB/WT Cohen's d, Rbm17 (EV protein Rbm17 (Q8JZX4)): 0.36 | WT + ISRIB/WT Cohen's d, Sbno1 (EV protein Sbno1 (Q689Z5)): 0.31 | WT + ISRIB/WT Cohen's d, Sec61b (EV protein Sec61b (Q9CQS8)): 3.71 | WT + ISRIB/WT Cohen's d, Sh3bp4 (EV protein Sh3bp4 (Q921I6)): −0.29 | ISRIB and DYT Parallel Direction, Sh3bp4 (EV protein Sh3bp4 (Q921I6), WT + ISRIB vs WT): YES | WT + ISRIB/WT Cohen's d, Srrm2 (EV protein Srrm2 (Q8BTI8)): 0.17 | WT + ISRIB/WT Cohen's d, Sumo1 (EV protein Sumo1 (P63166)): 5.82 | WT + ISRIB/WT Cohen's d, Tes (EV protein Tes (P47226)): 1.50 | WT + ISRIB/WT Cohen's d, Timp3 (EV protein Timp3 (P39876)): −3.42 | WT + ISRIB/WT Cohen's d, Tspan7 (EV protein Tspan7 (Q62283)): −0.21 | ISRIB and DYT Parallel Direction, Tspan7 (EV protein Tspan7 (Q62283), WT + ISRIB vs WT): YES | WT + ISRIB/WT Cohen's d, Unc119b (EV protein Unc119b (Q8C4B4)): 0.17 | proteins reduced in both mouse and human EVs whose abundance is modulated toward DYT1-like in WT cells (and toward correction by salubrinal in DYT1 cells) (ISRIB): 4 of the 7 | Acaa1a (ACAA1) EV abundance Cohen's d (WT+ISRIB/WT, 50 nM, 24 h): −0.8751 | Acaa1a (ACAA1) EV abundance Log2_FC (WT+ISRIB/WT, 50 nM, 24 h): −0.6305 | Ano6 (ANO6) EV abundance Cohen's d (WT+ISRIB/WT, 50 nM, 24 h): 0.8352 | Ano6 (ANO6) EV abundance Log2_FC (WT+ISRIB/WT, 50 nM, 24 h): 0.2496 | Ap1b1 (AP1B1) EV abundance Cohen's d (WT+ISRIB/WT, 50 nM, 24 h): −0.2382 | Ap1b1 (AP1B1) EV abundance Log2_FC (WT+ISRIB/WT, 50 nM, 24 h): −0.1813 | Arl8b (ARL8B) EV abundance Cohen's d (WT+ISRIB/WT, 50 nM, 24 h): −0.8778 | Arl8b (ARL8B) EV abundance Log2_FC (WT+ISRIB/WT, 50 nM, 24 h): −0.2989 | Bzw2 (BZW2) EV abundance Cohen's d (WT+ISRIB/WT, 50 nM, 24 h): −0.9186 | Bzw2 (BZW2) EV abundance Log2_FC (WT+ISRIB/WT, 50 nM, 24 h): 0.7265 | Cryab (CRYAB) EV abundance Cohen's d (WT+ISRIB/WT, 50 nM, 24 h): −0.1165 | Cryab (CRYAB) EV abundance Log2_FC (WT+ISRIB/WT, 50 nM, 24 h): 0.1177 | DIst (DLST) EV abundance Cohen's d (WT+ISRIB/WT, 50 nM, 24 h): 0.6821 | DIst (DLST) EV abundance Log2_FC (WT+ISRIB/WT, 50 nM, 24 h): −1.897 | Ehd4 (EHD4) EV abundance Cohen's d (WT+ISRIB/WT, 50 nM, 24 h): −1.159 | Ehd4 (EHD4) EV abundance Log2_FC (WT+ISRIB/WT, 50 nM, 24 h): −0.09267 | Flna (FLNA) EV abundance Cohen's d (WT+ISRIB/WT, 50 nM, 24 h): −0.09039 | Flna (FLNA) EV abundance Log2_FC (WT+ISRIB/WT, 50 nM, 24 h): −0.2341 | Fscn1 (FSCN1) EV abundance Cohen's d (WT+ISRIB/WT, 50 nM, 24 h): −0.9728 | Fscn1 (FSCN1) EV abundance Log2_FC (WT+ISRIB/WT, 50 nM, 24 h): −0.2944 | Gart (GART) EV abundance Cohen's d (WT+ISRIB/WT, 50 nM, 24 h): −0.1196 | Gart (GART) EV abundance Log2_FC (WT+ISRIB/WT, 50 nM, 24 h): −0.2546 | Hist1h1b (H1-5) EV abundance Cohen's d (WT+ISRIB/WT, 50 nM, 24 h): −0.4556 | Hist1h1b (H1-5) EV abundance Log2_FC (WT+ISRIB/WT, 50 nM, 24 h): −0.08676 | Hnrnpc (HNRNPC) EV abundance Cohen's d (WT+ISRIB/WT, 50 nM, 24 h): 1.199

Source: patent publication US20260266848A1, “COMPOSITIONS AND METHODS FOR DIAGNOSING AND TREATING DYSTONIA” (Duke University, priority 2023, published 2026)
